This is an account of results in US20240075003A1, “Pelargonic Acid for Use Against Viral Infections” (priority 2021, published 2024).

Entries after “also recorded” stand apart in the source; their conditions may differ.

For assay [1], the system named is Porcine Reproductive and Respiratory Syndrome virus (PRRS). Kind of assay: Cytopathic effect (CPE) in Vero cells infected with PRRS virus, MCFA mixtures added. The following applies: 0.1% concentration in tissue culture, 5 days post infection. More on the design: key: 4 = total destruction of the cells; 3 = medium destruction; 2 = low destruction; 1 = no destruction. In kind it is cell-based.

The next assay relates to PED virus. The assay is classed as cell-based, Porcine Epidemic Diarrhea virus.
Another assay concerns ASF. More on the design: species or system African Swine Fever Virus.
The subject of assay [2] is African Swine Fever Virus (ASFV).

Regarding `CCCCCC(=O)O` [100% C6, caproic acid], in assay [1], the “CPE (first test)” value was 3/3 and the “CPE (second test)” value is given as 3/3.
Consider `CCCCCCCC(=O)O` [100% C8, caprylic acid], for which, in assay [1], the “CPE (first test)” value is 2/2 and the “CPE (second test)” value was 2/2.
Regarding `CCCCCCCCC(=O)O` [100% C9, pelargonic acid], in assay [1], the “CPE (first test)” value is 2/2 and the “CPE (second test)” value is 2/2. In addition, in the assay on PED virus, the “Protection against viral infection and cytolytic effect of the cells” value is listed as “gave the best results”. For the same compound, in the assay on ASF, the “Viral load of ASF compared with ester form or untreated feed” value is given as “significantly reduced the viral load”.
In the case of `CCCCCCCCCC(=O)O` [100% C10, capric acid], in assay [1], the “CPE (first test)” value is reported as 2 and the “CPE (second test)” value is listed as 4.
Consider `CCCCCCCCC(=O)O` [Composition F1, pelargonic acid], for which the “Cq value for ASFV compared to positive control” value in assay [2] was “significantly increase the Cq value; also recorded: induced a statistical increase in Cq value”.
